Where a name gives a salt, the structure may show the parent alone.
Legend:
[1] = target: Human LATS2 catalytic domain (Homo sapiens (Human), UniProt Q9NRM7); assay: LATS2 High ATP HTRF Assay; format: biochemical; details: no asterisk: LATS2 High ATP HTRF Assay, 5000 μM ATP, 0.05 nM LATS2
Method in brief: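 Phosphorylation of 0.5 μM STK S1 peptide at high ATP (5000 μM), 2 h at room temperature, by 0.05 nM LATS2 kinase domain/Mob1b complex after 10 min compound pre-incubation. Ki derived from HTRF-based IC50 (4-parameter logistic) by Cheng-Prusoff, ATP Km 105 μM.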

[2] = system: TAZ nuclear translocation in SW1990 cells; assay: TAZ Nuclear Translocation Assay; format: cell-based; details: Homo sapiens, 4 hours
Method in brief: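 SW1990 cells in RPMI1640/10% FBS treated with compounds for 4 h at 37 °C, then fixed and immunostained for TAZ with Hoechst nuclear counterstain and imaged by high-content imaging. Read-out is the nuclear/cytoplasmic-ring fluorescence ratio, normalized to DMSO (0%) and an inhibitor control (100%); EC50 from four-parameter fit.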

[3] = system: pYAP(Ser127) in SW1990 cells; assay: pYAP(Ser127) HTRF Cellular Assay; format: cell-based; details: Homo sapiens, 4 hours
Method: The SW1990 cells were seeded at 8000 cells/well by adding 30 μL/well of cells in RPMI1640, 10% FBS, 2 mM glutamine culture media to a 384-well plate (Corning 3570). The cells were incubated overnight at 37° C. Next day, compounds were directly added to the cells using the Echo Liquid Handler (Labcyte), incubate at 37° C. for 4 hours.
The HTRF assay was performed using the Cisbio phospho-YAP Ser127 HTRF kit (64YAPPEG). The media was aspirated from the cells. 20 μL of 1X lysis/blocking buffer was added to the cells, gently shake for 30 minutes at room temperature. 1 μL of the premixed antibody solution (1:40 dilution of each phospho-YAP Eu Cryptate antibody and phospho-YAP d2 antibody) was added to the cells. The plate was sealed and incubated overnight at room temperature. The HTRF (665 nm/620 nm) signal was read on the PHERAstar reader (BMG Labtech). The EC50 values were calculated by fitting the % inhibition with a nonlinear four-parameter logistical equation.

[4] = target: Human LATS1 catalytic domain (Homo sapiens (Human), UniProt O95835); assay: LATS1 High ATP HTRF Assay; format: biochemical; details: 5000 μM ATP, 0.025 nM LATS1; Cheng-Prusoff
Sequence of Human LATS1 catalytic domain (O95835 590-1130): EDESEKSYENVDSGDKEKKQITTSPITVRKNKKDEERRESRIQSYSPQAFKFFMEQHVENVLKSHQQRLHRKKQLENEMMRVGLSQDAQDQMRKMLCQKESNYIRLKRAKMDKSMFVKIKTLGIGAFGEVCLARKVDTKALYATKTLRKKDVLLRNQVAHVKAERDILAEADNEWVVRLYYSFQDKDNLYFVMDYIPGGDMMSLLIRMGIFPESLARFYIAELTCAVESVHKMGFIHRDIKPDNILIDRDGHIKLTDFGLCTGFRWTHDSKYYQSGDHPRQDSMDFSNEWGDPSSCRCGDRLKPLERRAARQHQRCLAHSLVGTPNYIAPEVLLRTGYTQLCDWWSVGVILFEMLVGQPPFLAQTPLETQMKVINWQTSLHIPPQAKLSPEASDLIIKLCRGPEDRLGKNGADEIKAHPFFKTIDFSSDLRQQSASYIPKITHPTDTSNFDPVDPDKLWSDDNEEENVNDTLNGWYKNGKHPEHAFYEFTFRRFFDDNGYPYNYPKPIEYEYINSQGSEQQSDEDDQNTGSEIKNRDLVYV
Sequence of Human LATS1 catalytic domain (Q7L9L4 whole entry partner, the tested form may be a part): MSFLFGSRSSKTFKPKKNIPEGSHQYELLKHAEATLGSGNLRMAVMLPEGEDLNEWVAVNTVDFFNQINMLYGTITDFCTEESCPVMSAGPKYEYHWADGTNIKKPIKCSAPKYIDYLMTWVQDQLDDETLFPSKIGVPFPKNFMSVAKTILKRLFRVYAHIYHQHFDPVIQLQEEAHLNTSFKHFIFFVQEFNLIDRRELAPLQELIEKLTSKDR
Method: Human LATS1 catalytic domain which contains the amino acids E590-V1130 (accession NP_004681) was purified in-house. The LATS1 catalytic domain was co-purified with Mob1b (accession NP_775739). The LATS1 biochemical assay was performed using the HTRF KinEASE-STK S1 Kit (Cisbio, Cat #62ST1PEC), following the protocol from the manufacturer. Compounds were dispensed by the Echo Liquid Handler (Labcyte) into a white 384-well plate (PerkinElmer, Cat #6008289). 3 μL of 2×LATS1 enzyme solution was added to the compounds, followed by a 10 minute incubation at room temperature. Then, 3 μL of 2×ATP and STK S1 peptide solution was added to initiate the enzyme reaction for one hour at room temperature. The final condition of the reaction was 0.025 nM LATS1, 5000 μM ATP, 0.5 μM STK S1 peptide in 50 mM HEPES pH 7.2, 10 mM MgCl2, 0.1% BGG, 0.005% Brij-35, 1 mM DTT. The reaction was quenched and the HTRF signal was read.

Sequence of Human LATS2 catalytic domain (Q9NRM7 553-1088): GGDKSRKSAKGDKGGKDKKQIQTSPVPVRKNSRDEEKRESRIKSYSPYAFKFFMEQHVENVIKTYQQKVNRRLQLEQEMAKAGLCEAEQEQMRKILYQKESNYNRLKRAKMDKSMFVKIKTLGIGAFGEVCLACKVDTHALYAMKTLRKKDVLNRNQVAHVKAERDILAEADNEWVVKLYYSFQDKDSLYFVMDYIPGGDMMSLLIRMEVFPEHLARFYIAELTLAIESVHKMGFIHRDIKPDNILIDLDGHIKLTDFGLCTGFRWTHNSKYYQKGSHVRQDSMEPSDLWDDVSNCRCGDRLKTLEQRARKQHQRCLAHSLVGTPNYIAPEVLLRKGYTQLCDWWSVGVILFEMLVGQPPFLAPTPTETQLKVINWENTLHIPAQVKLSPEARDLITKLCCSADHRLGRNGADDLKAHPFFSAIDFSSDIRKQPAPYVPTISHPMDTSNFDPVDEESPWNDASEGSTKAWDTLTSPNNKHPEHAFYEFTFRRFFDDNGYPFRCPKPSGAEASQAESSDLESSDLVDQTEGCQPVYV
Sequence of Human LATS2 catalytic domain (Q7L9L4 whole entry partner, the tested form may be a part): as the sequence (Q7L9L4 whole entry partner, the tested form may be a part) above

Row | SMILES | Ki [1] | EC50 [2] | EC50 [3] | Ki [4]
1 | c1cc(-c2nc(N3CCC4(CC3)CCN([C@H]3CCOC3)C4)c3ccncc3n2)ccn1 (single isomer, unassigned) [Compound 113] | 0.82 nM | 660 nM | 1100 nM | –
2 | C[C@H](O)CN1CCC2(CCN(c3nc(-c4ccncc4)nc4cnccc34)CC2)C1 (single isomer, unassigned) [Compound 115] | 0.13 nM | 300 nM | 310 nM | 0.0063 nM
3 | C[C@@H](O)CN1CCC2(CCN(c3nc(-c4ccncc4)nc4cnccc34)CC2)C1 (single isomer, unassigned) [Compound 116] | 0.13 nM | 310 nM | 320 nM | 0.0079 nM
4 | O[C@@H]1CCC[C@H]1N1CCC2(CCN(c3nc(-c4ccncc4)nc4cnccc34)CC2)C1 (single isomer, unassigned) [Compound 128] | 0.073 nM | 300 nM | 360 nM | 0.0058 nM
5 | O[C@H]1CCC[C@@H]1N1CCC2(CCN(c3nc(-c4ccncc4)nc4cnccc34)CC2)C1 (single isomer, unassigned) [Compound 129] | 0.076 nM | 140 nM | 290 nM | 0.0074 nM
6 | OC[C@@H]1CC2(CCN(c3nc(-c4ccncc4)nc4cnccc34)CC2)CN1 (single isomer, unassigned) [Compound 197] | 0.059 nM | 1300 nM | 1400 nM | –
7 | OC[C@H]1CC2(CCN(c3nc(-c4ccncc4)nc4cnccc34)CC2)CN1 (single isomer, unassigned) [Compound 198] | 0.041 nM | 1400 nM | 2400 nM | –
8 | c1cc(-c2nc(N3CCC4(CCNC4)CC3)c3ccncc3n2)ccn1 [Compound 101, 2-(pyridin-4-yl)-4-(2,8-diazaspiro[4.5]decan-8-yl)pyrido[3,4-d]pyrimidine] | 0.38 nM | 990 nM | 1100 nM | 0.051 nM
9 | CN1CCC2(CCN(c3nc(-c4ccncc4)nc4cnccc34)CC2)C1 [Compound 102, 4-(2-methyl-2,8-diazaspiro[4.5]decan-8-yl)-2-(pyridin-4-yl)pyrido[3,4-d]pyrimidine] | 0.98 nM | 350 nM | 430 nM | 0.011 nM
10 | FC(F)(F)CN1CCC2(CCN(c3nc(-c4ccncc4)nc4cnccc34)CC2)C1 [Compound 105, 2-(pyridin-4-yl)-4-(2-(2,2,2-trifluoroethyl)-2,8-diazaspiro[4.5]decan-8-yl)pyrido[3,4-d]pyrimidine] | 3.08 nM | 2300 nM | 5800 nM | –
11 | c1cc(-c2nc(N3CCC4(CC3)CCN(C3CCCC3)C4)c3ccncc3n2)ccn1 [Compound 106, 4-(2-cyclopentyl-2,8-diazaspiro[4.5]decan-8-yl)-2-(pyridin-4-yl)pyrido[3,4-d]pyrimidine formate] | 0.053 nM | 300 nM | 230 nM | –
12 | CC(C)(CO)N1CCC2(CCN(c3nc(-c4ccncc4)nc4cnccc34)CC2)C1 [Compound 107, 2-methyl-2-(8-(2-(pyridin-4-yl)pyrido[3,4-d]pyrimidin-4-yl)-2,8-diazaspiro[4.5]decan-2-yl)propan-1-ol] | 0.62 nM | 420 nM | 290 nM | –
13 | OC1CC(N2CCC3(CCN(c4nc(-c5ccncc5)nc5cnccc45)CC3)C2)C1 (stereo not shown) [Compound 108, 3-(8-(2-(pyridin-4-yl)pyrido[3,4-d]pyrimidin-4-yl)-2,8-diazaspiro[4.5]decan-2-yl)cyclobutanol] | 0.31 nM | 380 nM | 580 nM | –
14 | CC(C)(O)CN1CCC2(CCN(c3nc(-c4ccncc4)nc4cnccc34)CC2)C1 [Compound 110, 2-methyl-1-(8-(2-(pyridin-4-yl)pyrido[3,4-d]pyrimidin-4-yl)-2,8-diazaspiro[4.5]decan-2-yl)propan-2-ol] | 0.075 nM | 220 nM | 330 nM | 0.0079 nM
15 | OCCN1CCC2(CCN(c3nc(-c4ccncc4)nc4cnccc34)CC2)C1 [Compound 114, 2-(8-(2-(pyridin-4-yl)pyrido[3,4-d]pyrimidin-4-yl)-2,8-diazaspiro[4.5]decan-2-yl)ethanol] | 0.31 nM | 610 nM | 550 nM | –
16 | OCCCN1CCC2(CCN(c3nc(-c4ccncc4)nc4cnccc34)CC2)C1 [Compound 120, 3-(8-(2-(pyridin-4-yl)pyrido[3,4-d]pyrimidin-4-yl)-2,8-diazaspiro[4.5]decan-2-yl)propan-1-ol] | 0.17 nM | 370 nM | 360 nM | –
17 | COCCN1CCC2(CCN(c3nc(-c4ccncc4)nc4cnccc34)CC2)C1 [Compound 121, 4-(2-(2-methoxyethyl)-2,8-diazaspiro[4.5]decan-8-yl)-2-(pyridin-4-yl)pyrido[3,4-d]pyrimidine] | 0.8 nM | 300 nM | 630 nM | –
18 | c1cc(-c2nc(N3CCC4(CCN(CC5COC5)C4)CC3)c3ccncc3n2)ccn1 [Compound 124, 4-(2-(oxetan-3-ylmethyl)-2,8-diazaspiro[4.5]decan-8-yl)-2-(pyridin-4-yl)pyrido[3,4-d]pyrimidine] | 0.083 nM | 240 nM | 260 nM | 0.0068 nM
19 | FC(F)CN1CCC2(CCN(c3nc(-c4ccncc4)nc4cnccc34)CC2)C1 [Compound 127, 4-(2-(2,2-difluoroethyl)-2,8-diazaspiro[4.5]decan-8-yl)-2-(pyridin-4-yl)pyrido[3,4-d]pyrimidine] | 0.55 nM | 1300 nM | 3400 nM | –
20 | c1cc(-c2nc(N3CCC4(CC3)CCN(C3CCC3)C4)c3ccncc3n2)ccn1 [Compound 131, 4-(2-cyclobutyl-2,8-diazaspiro[4.5]decan-8-yl)-2-(pyridin-4-yl)pyrido[3,4-d]pyrimidine] | 0.29 nM | 280 nM | 490 nM | –
21 | c1ccc(CN2CCC3(CCN(c4nc(-c5ccncc5)nc5cnccc45)CC3)C2)cc1 [Compound 133, 4-(2-benzyl-2,8-diazaspiro[4.5]decan-8-yl)-2-(pyridin-4-yl)pyrido[3,4-d]pyrimidine] | 0.069 nM | 400 nM | 250 nM | –
22 | CCN1CCC2(CCN(c3nc(-c4ccncc4)nc4cnccc34)CC2)C1 [Compound 138, 4-(2-ethyl-2,8-diazaspiro[4.5]decan-8-yl)-2-(pyridin-4-yl)pyrido[3,4-d]pyrimidine] | 0.61 nM | 590 nM | 890 nM | –
23 | Cc1n[nH]cc1-c1nc(N2CCC3(CCN(C)C3)CC2)c2ccncc2n1 [Compound 143, 2-(3-methyl-1H-pyrazol-4-yl)-4-(2-methyl-2,8-diazaspiro[4.5]decan-8-yl)pyrido[3,4-d]pyrimidine] | 0.15 nM | 700 nM | 1000 nM | –
24 | Cc1n[nH]cc1-c1nc(N2CCC3(CC2)CCN(C2CCCC2)C3)c2ccncc2n1 [Compound 147, 4-(2-cyclopentyl-2,8-diazaspiro[4.5]decan-8-yl)-2-(3-methyl-1H-pyrazol-4-yl)pyrido[3,4-d]pyrimidine] | 0.056 nM | 180 nM | 210 nM | 0.013 nM
25 | CCN1CCC2(CCN(c3nc(-c4cn[nH]c4C)nc4cnccc34)CC2)C1 [Compound 151, 4-(2-ethyl-2,8-diazaspiro[4.5]decan-8-yl)-2-(5-methyl-1H-pyrazol-4-yl)pyrido[3,4-d]pyrimidine] | 0.09 nM | 470 nM | 390 nM | –
26 | c1ccc(Cc2cc3c(N4CCC5(CCNC5)CC4)nc(-c4ccncc4)nc3cn2)cc1 [Compound 157, 6-benzyl-2-(pyridin-4-yl)-4-(2,8-diazaspiro[4.5]decan-8-yl)pyrido[3,4-d]pyrimidine] | 0.067 nM | 240 nM | 510 nM | 0.049 nM
27 | CC1CC2(CCN(c3nc(-c4ccncc4)nc4cnccc34)CC2)CN1 (stereo not shown) [Compound 167, 4-(3-methyl-2,8-diazaspiro[4.5]decan-8-yl)-2-(pyridin-4-yl)pyrido[3,4-d]pyrimidine] | 0.58 nM | 540 nM | 300 nM | –

Reference: patent publication US20240174696A1, “2,8-DIAZASPIRO[4.5]DECANE COMPOUNDS” (Genentech, Inc., priority 2021, published 2024)
